In patent US20230348400A1, “ORGANIC COMPOUND, LIGHT-EMITTING DEVICE, AND LIGHT-EMITTING APPARATUS” (SEMICONDUCTOR ENERGY LABORATORY CO., LTD., priority 2022, published 2023):
Converted amounts (≈) assume the structure as drawn.

Experiment: Solubility test in water (stepwise addition of water, ultrasonic waves, visual observation of precipitate)
Format: physicochemical
Settings: for solubility at 1 min: from solid; for solubility in water as a fraction of the solubility of 2,7hpp2SF in water: one atmosphere, RT, relative to comparative 2,7hpp2SF
Protocol: In this example, the solubility of the organic compounds that can be used in the display apparatus of one embodiment of the present invention is described. Note that the solubility test was conducted at a pressure of one atmosphere at room temperature (RT).
(§1) The mixture was irradiated with ultrasonic waves for 1 minute. The mixture was visually observed, and a white powdered precipitate was observed. This means part of 2′,7′tBu-2,7hpp2SF remained undissolved. […] This process was repeated until the white powdered precipitate was not visually observed any more. Thus, the solubility was examined.
The mixture was irradiated with ultrasonic waves for 1 minute. Whether part of the mixture remained undissolved was visually confirmed, and a white powdered precipitate was observed. […] This process was repeated.
as §1, with “was” for “was visually”, “2,7hpp2SF” for “2′,7′tBu-2,7hpp2SF”

Compound	solubility at 1 min [µg/mL]	solubility in water as a fraction of the solubility of 2,7hpp2SF in water	weight that is dissolved in 1.0 mL of water (pressure of one atmosphere, room temperature (RT))
c1ccc2c(c1)-c1ccccc1C21c2cc(N3CCCN4CCCN=C43)ccc2-c2ccc(N3CCCN4CCCN=C43)cc21 [2,7hpp2SF, 1,1′-(9,9′-spirobi[9H-fluorene]-2,7-diyl)bis(1,3,4,6,7,8-hexahydro-2H-pyrimido[1,2-a]pyrimidine), reference compound]	330 to 390 (≈ 559 to 660 µM)		
CC(C)(C)c1ccc2c(c1)C1(c3cc(N4CCCN5CCCN=C54)ccc3-c3ccc(N4CCCN5CCCN=C54)cc31)c1cc(C(C)(C)C)ccc1-2 [Structural Formula (100), 1,1′-(2′,7′-di-tert-butyl-9,9′-spirobi[9H-fluorene]-2,7-diyl)bis(1,3,4,6,7,8-hexahydro-2H-pyrimido[1,2-a]pyrimidine)]	58 to 61	less than or equal to ⅕	
CC(C)(C)c1ccc2c(c1)C1(c3ccccc3-c3ccc(N4CCCN5CCCN=C54)cc31)c1cc(C(C)(C)C)ccc1-2 [Structural Formula (101), 1-(2′,7′-di-tert-butyl-9,9′-spirobi[9H-fluoren]-2-yl)-1,3,4,6,7,8-hexahydro-2H-pyrimido[1,2-a]pyrimidine]	< 2.3	less than or equal to 1/140	less than 0.0023 mg
